Results from US5273974A, “Condensed heterocyclic compounds, their production and use” (priority 1990, dated 1993).
pIC50: −log10 of the molar value. Where a name gives a salt, the structure may show the parent alone.

The molecules below were run against T1, Acetylcholinesterase (Rattus norvegicus, UniProt P37136) (assay: Cholinesterase inhibitory activity assayed with (acetyl-[3H])-acetylcholine (S1 fraction of male Wistar rat cerebral cortex homogenate)). Conditions: (acetyl-[3H])-acetylcholine substrate, 30 minutes incubation.
T1 construct: S1 fraction of a homogenate of male Wistar rat cerebral cortex; from tissue; host or cells: male Wistar rat cerebral cortex, S1 fraction of homogenate
T1 sequence (P37136 32-614): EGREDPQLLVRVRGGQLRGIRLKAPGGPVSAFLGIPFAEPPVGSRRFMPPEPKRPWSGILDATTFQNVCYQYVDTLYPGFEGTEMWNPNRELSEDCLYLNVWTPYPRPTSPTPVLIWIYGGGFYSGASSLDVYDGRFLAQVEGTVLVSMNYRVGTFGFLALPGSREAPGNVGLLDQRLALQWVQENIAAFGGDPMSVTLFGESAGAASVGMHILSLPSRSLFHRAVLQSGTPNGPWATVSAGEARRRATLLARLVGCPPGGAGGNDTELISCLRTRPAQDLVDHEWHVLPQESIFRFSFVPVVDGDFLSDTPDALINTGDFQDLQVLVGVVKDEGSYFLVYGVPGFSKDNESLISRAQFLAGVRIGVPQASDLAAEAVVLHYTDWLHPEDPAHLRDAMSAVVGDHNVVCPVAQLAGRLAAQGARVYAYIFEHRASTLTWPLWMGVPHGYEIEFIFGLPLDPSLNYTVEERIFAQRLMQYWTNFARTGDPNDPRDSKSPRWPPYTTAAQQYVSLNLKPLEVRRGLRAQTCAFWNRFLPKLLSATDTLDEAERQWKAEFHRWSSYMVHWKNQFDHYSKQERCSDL
Type: biochemical
Experimental: The cholinesterase inhibitory activity of the compound of the present invention was assayed with (acetyl-[3H])-acetylcholine. Thus, using the S1 fraction of a homogenate of male Wistar rat cerebral cortex as the cholinesterase source, (acetyl-[3H])-acetylcholine and the compound of the invention were added as the substrate and the test substance, respectively, and the mixture was incubated for 30 minutes. After the reaction was terminated, a toluene-based scintillant was added and, after shaking, the reaction product [3H]-acetic acid which was transferred to the toluene layer was determined with a scintillation counter to estimate the cholinesterase activity.
O=C(CCC1CCN(Cc2ccccc2)CC1)c1ccc2c(c1)NCCCC2 [19-16] gave a pIC50 of 6.99.
With O=C(CCC1CCN(Cc2ccccc2)CC1)c1ccc2c(c1)CCCN2 [Example 2, 6-[1-Oxo-3-[1-(phenylmethyl)piperidin-4-yl]propyl]-1,2,3,4-tetrahydroquinoline dihydrochloride] the pIC50 was 7.85.
O=C(CCC1CCN(Cc2ccccc2)CC1)c1ccc2c(c1)CCCN2Cc1ccccc1 [Example 3, 1-(Phenylmethyl)-6-[3-[1-(phenylmethyl)piperidin-4-yl]-1-oxopropyl]-1,2,3,4-tetrahydroquinoline dihydrochloride] gave a pIC50 of 6.92.
Molecule CN1CCCc2cc(C(=O)CCC3CCN(Cc4ccccc4)CC3)ccc21 [Example 4, 1-Methyl-6-[3-[1-(phenylmethyl)piperidin-4-yl]-1-oxopropyl]-1,2,3,4-tetrahydroquinoline dihydrochloride] has a pIC50 of 8.00.
Molecule O=C(CCC1CCN(Cc2ccccc2)CC1)c1ccc2c(c1)CCCN2 [Example 6-A, 6-[1-Oxo-3-[1-(phenylmethyl)piperidin-4-yl]propyl]-1,2,3,4-tetrahydroquinoline fumarate] has a pIC50 of 7.27.
Work on O=C(CCC1CCN(Cc2ccccc2)CC1)c1ccc2c(c1)NCCC2 [Example 6-B, 7-[1-Oxo-3-[1-(phenylmethyl)piperidin-4-yl]propyl]-1,2,3,4-tetrahydroquinoline fumarate] yielded a pIC50 of 7.27.
CN1CCCc2cc(C(=O)CCC3CCN(Cc4ccccc4)CC3)ccc21 [Example 8-A, 1-Methyl-6-[1-oxo-3-[1-(phenylmethyl)piperidin-4-yl]-propyl]-1,2,3,4-tetrahydroquinoline fumarate] gave a pIC50 of 7.62.
Molecule CN1CCCc2ccc(C(=O)CCC3CCN(Cc4ccccc4)CC3)cc21 [Example 8-B, 1-methyl-7-[1-oxo-3-[1-(phenylmethyl)piperidin-4-yl]propyl]-1,2,3,4-tetrahydroquinoline fumarate] has a pIC50 of 7.44.
Work on O=C(CCC1CCN(Cc2ccccc2)CC1)c1ccc2c(c1)CCCN2Cc1ccccc1 [Example 10, 1-(Phenylmethyl)-6-[1-oxo-3-[1-(phenylmethyl)piperidin-4-yl]propyl]-1,2,3,4-tetrahydroquinoline fumarate] yielded a pIC50 of 6.80.
In the case of O=C(CCC1CCN(Cc2ccccc2)CC1)c1ccc2c(c1)CCN2 [Example 13, 2,3-Dihydro-5-[1-oxo-3-[1-(phenylmethyl)piperidin-4-yl]propyl]-1H-indole fumarate], the pIC50 was 7.70.
CN1CCc2cc(C(=O)CCC3CCN(Cc4ccccc4)CC3)ccc21 [Example 14, 2,3-Dihydro-1-methyl-5-[1-oxo-3-[1-(phenylmethyl)-piperidin-4-yl]propyl]-1H-indole fumarate] showed a pIC50 of 8.00.
O=C(CCC1CCN(Cc2ccccc2)CC1)c1ccc2c(c1)CCN2Cc1ccccc1 [Example 15, 2,3-Dihydro-5-[1-oxo-3-[1-(phenylmethyl)piperidin-4-yl]propyl]-1-(phenylmethyl)-1H-indole fumarate] was tested, and the pIC50 was 7.17.
Molecule CC(=O)N1CCCc2cc(C(=O)CCC3CCN(Cc4ccccc4)CC3)ccc21 [Example 16, 1-Acetyl-6-[1-oxo-3-[1-(phenylmethyl)piperidin-4-yl]propyl]-1,2,3,4-tetrahydroquinoline fumarate] has a pIC50 of 7.85.
With Cc1cccc(CN2CCC(CCC(=O)c3ccc4c(c3)CCN4)CC2)c1 [Example 19-7] the pIC50 was 7.30.
Work on O=C(CCC1CCN(Cc2cccc(F)c2)CC1)c1ccc2c(c1)CCN2 [Example 19-8] yielded a pIC50 of 7.80.
Molecule CCN1CCc2cc(C(=O)CCC3CCN(Cc4ccccc4)CC3)ccc21 [Example 19-11] has a pIC50 of 7.96.
Work on CCCN1CCc2cc(C(=O)CCC3CCN(Cc4ccccc4)CC3)ccc21 [Example 19-12] yielded a pIC50 of 7.66.
Work on CCCCN1CCc2cc(C(=O)CCC3CCN(Cc4ccccc4)CC3)ccc21 [Example 19-13] yielded a pIC50 of 7.54.
For CCCCCN1CCc2cc(C(=O)CCC3CCN(Cc4ccccc4)CC3)ccc21 [Example 19-14], the pIC50 was 7.33.
With O=C(CCC1CCN(Cc2ccccc2)CC1)c1ccc2c(c1)CCN2CCc1ccccc1 [Example 19-15] the pIC50 was 7.55.
Work on CN1CCCCc2ccc(C(=O)CCC3CCN(Cc4ccccc4)CC3)cc21 [Example 19-17] yielded a pIC50 of 7.09.
O=C(CCC1CCN(Cc2ccccc2)CC1)c1ccc2c(c1)CCCCN2 [Example 19-20] was tested, and the pIC50 was 6.90.
O=C(CCC1CCN(Cc2cccc(F)c2)CC1)c1ccc2c(c1)NCCCC2 [Example 19-21] was tested, and the pIC50 was 6.84.
With O=C(CCC1CCN(Cc2ccccc2)CC1)c1ccc2c(c1)CCO2 [Example 21, 2,3-Dihydro-5-[1-oxo-3-[1-(phenylmethyl)piperidin-4-yl]propyl]benzofuran hydrochloride] the pIC50 was 7.55.
O=C(CCC1CCN(Cc2ccccc2)CC1)c1ccc2c(c1)CCNCC2 [Example 22, 7-[1-Oxo-3-[1-(phenylmethyl)piperidin-4-yl]propyl]-2,3,4,5-tetrahydro-1H-3-benzazepine dihydrochloride] gave a pIC50 of 8.12.
Molecule CN1CCc2ccc(C(=O)CCC3CCN(Cc4ccccc4)CC3)cc2CC1 [Example 23, 3-Methyl-7-[1-oxo-3-[1-(phenylmethyl)piperidin-4-yl]-propyl-2,3,4,5-tetrahydro-1H-3-benzazepinedihydrochloride] has a pIC50 of 8.19.
With O=C(CCC1CCN(Cc2ccccc2)CC1)c1ccc2c(c1)NCC2 [Example 25, 2,3-Dihydro-6-[1-oxo-3-[1-(phenylmethyl)piperidin-4-yl]propyl]-1H-indole fumarate] the pIC50 was 6.95.
O=C(CCC1CCN(Cc2ccccc2)CC1)c1ccc2c(c1)NCCCCC2 [Example 27, 9-[1-Oxo-3-[1-(phenylmethyl)piperidin-4-yl]propyl]-1,2,3,4,5,6-hexahydro-1-benzazocine fumarate] gave a pIC50 of 6.90.
